In publication PMC9228535, “Antistaphylococcal Activities and ADME-Related Properties of Chlorinated Arylcarbamoylnaphthalenylcarbamates” (Pharmaceuticals, 2022):
≈ marks a conversion by molar mass, not a printed value. Like-named read-outs stand apart in the source and are kept apart here.

Columns and labels:
[1] = Lipophilicity determination by RP-HPLC (log k, log D); format: physicochemical; details: for log D6.5 / log D7.4 / log k: RP-HPLC; for log D6.5: MeOH 72%/acetate buffered saline pH 6.5; for log D7.4: MeOH 72%/acetate buffered saline pH 7.4; for log k: MeOH 72%/water 28%
Protocol: Lipophilicity was measured by reversed-phase high performance liquid chromatography (RP-HPLC) under isocratic conditions with methanol as the organic modifier in the aqueous mobile phase and the logarithm of the capacity factor k was calculated, which is used as the lipophilicity index converted to the log P scale. In addition to the log k values, the logarithm of the distribution coefficient DpH at pH 6.5 and 7.4 was determined to clarify the behavior of the compounds under physiological conditions and possible ionization. Instead of water, a buffer of suitable pH was used as part of the mobile phase. In addition to the above-mentioned experimental methods, commercially available ChemBioDraw Ultra 13.0 and ACD/Percepta ver. […] In addition to lipophilicity, other parameters discussed in Ro5, such as molecular weight, number of H-bond donors/acceptors, as well as parameters not reported in Ro5, but characterizing the physicochemical properties of the prepared molecules, such as number of rotatable bonds, were predicted using ACD/Percepta. Moreover, for each R substituent, bulkiness expressed as molar volume (MV [cm^3]), a parameter describing the tail length/branching of each carbamates, was calculated.
A HPLC separation module Agilent 1200 Series (Agilent Technologies, Santa Clara, CA, USA) equipped with a Dual Absorbance Detector (DAD SL G1315C, Agilent Technologies) was used. A chromatographic column Symmetry® C18 5 μm, 4.6 × 250 mm, Part No. W21751W016 (Waters Corp, Milford, MA, USA) was used. The HPLC separation process was monitored by ChemStation for LC 3D systems (Agilent Technologies). […] The total flow of the column was 1.0 mL/min, injection 20 μL, column temperature 40 °C, and sample temperature 10 °C. The detection wavelength of 210 nm was chosen. A KI methanolic solution was used for the determination of the dead times (tD). Retention times (tR) were measured in minutes. The capacity factors k were calculated according to the formula k = (tR − tD)/tD, where tR is the retention time of the solute, and tD is the dead time obtained using an unretained analyte. The distribution coefficients DpH were calculated according to the formula DpH = (tR − tD)/tD. Each experiment was repeated three times.

MRSA 63718 [2] = test: MIC, microtitration broth method; format: cell-based; details: Staphylococcus aureus, MRSA, 24 h
Protocol: (§1) All the investigated compounds were screened for in vitro antibacterial activity against the reference and quality control strain Staphylococcus aureus ATCC 29213 and clinical isolates of methicillin-resistant S. aureus (MRSA) 63718, SA 630, and SA 3202 [14]. Activities are expressed as the minimum inhibitory concentrations (MICs), see Table 2. In addition to the MICs, the minimum bactericidal concentrations (MBCs) were also determined.
(§2) In vitro antibacterial activity of the synthesized compounds was evaluated against representatives of multidrug-resistant bacteria, three clinical isolates of methicillin-resistant S. aureus: clinical isolate of animal origin, MRSA 63718 (Department of Infectious Diseases and Microbiology, Faculty of Veterinary Medicine, University of Veterinary Sciences Brno, Czech Republic), carrying the mecA gene; and MRSA SA 630 [46] and MRSA SA 3202 [46] (National Institute of Public Health, Prague, Czech Republic), both of human origin. Suspected colonies were confirmed by PCR; a 108bp fragment specific for S. aureus was detected. All isolates were tested for the presence of the mecA gene encoding methicillin resistance. […] Vancomycin-susceptible methicillin-susceptible S. aureus (VS-MSSA) ATCC 29213, obtained from the American Type Culture Collection, was used as the reference and quality control strain. Enterococcus faecalis ATCC 29212 was obtained from the American Type Culture Collection and used as the reference and quality control strain.
(§3) The minimum inhibitory concentrations (MICs) were evaluated by the microtitration broth method according to the CLSI [64, 65] with some modifications. The compounds were dissolved in DMSO (Sigma, St. Louis, MO, USA) to get a concentration […] and diluted in a microtitration plate in an appropriate medium, namely, Cation Adjusted Mueller–Hinton (CaMH, Oxoid, Basingstoke, UK) for staphylococci (S. aureus ATCC 29213, clinical isolates of MRSA 63718, SA 630, and SA 3202) and brain heart infusion (BHI, Oxoid) for E. faecalis ATCC 29212, to reach the final concentration of 256-0.125 µg/mL. The plate was inoculated by the tested microorganisms. The final concentration of bacterial cells was 10^5 for bacteria. Ampicillin (Sigma) was used as reference drugs. A drug-free control and a sterility control were included. The plates were incubated for 24 h at 37 °C for staphylococci and E. faecalis ATCC 29212 (stability evaluation of the carbamates, see Supplementary materials, Table S1). […] The experiments were repeated three times.

MRSA SA 3202 [3] = test: MIC, microtitration broth method; format: cell-based; details: Staphylococcus aureus, 24 h
Protocol: as §1, §2, §3

MRSA SA 630 [4] = test: MIC, microtitration broth method; format: cell-based; details: Staphylococcus aureus, 24 h
Protocol: as §1, §2, §3

[5] = system: Staphylococcus aureus ATCC 29213; test: MIC, microtitration broth method; format: cell-based; details: ATCC29213, SA = S. aureus ATCC 29213, 24 h, read-out: MIC
Protocol: as §1, §2, §3

MRSA 63718 [6] = test: MBC, agar aliquot subculture method; format: cell-based; details: Staphylococcus aureus, MRSA
Protocol: as §1
(§4) For the S. aureus and MRSA isolates, the agar aliquot subculture method was used as a test for bactericidal agents. After the MIC value determination, the inoculum was transferred to Mueller–Hinton (Oxoid) agar using a multipoint inoculator. The plates were incubated in a thermostat at 37 °C for 24 h. The lowest concentration of test compound at which ≤5 colonies were obtained was then evaluated as MBC, corresponding to a 99.9% decrease in CFU relative to the original inoculum.

MRSA SA 3202 [7] = test: MBC, agar aliquot subculture method; format: cell-based; details: Staphylococcus aureus
Protocol: as §1, §4

MRSA SA 630 [8] = test: MBC, agar aliquot subculture method; format: cell-based; details: Staphylococcus aureus
Protocol: as §1, §4

[9] = system: Staphylococcus aureus ATCC 29213; test: MBC, agar aliquot subculture method; format: cell-based; details: ATCC29213, SA = S. aureus ATCC 29213, read-out: MBC
Protocol: as §1, §4

[10] = system: Enterococcus faecalis ATCC 29212; test: MIC, microtitration broth method; format: cell-based; details: for MIC: ATCC29212, EF = Enterococcus faecalis, 24 h, read-out: MIC
Protocol: as §2, §3

THP-1 cells = test: In vitro cytotoxicity assay (WST-1); format: cell-based; details: Homo sapiens; THP-1, 24 h, ± SD, n = 6; read-out: IC50
Protocol: Preliminary in vitro cytotoxicity screening of the investigated compounds was performed using human monocytic leukemia THP-1 cells, see Table 2. The ability to inhibit the human cancer cell viability (IC50) of the compounds was compared to camptothecin toxicity (0.16 ± 0.07 μM). […] However, these values are up to two orders of magnitude higher than their significant antistaphyloccocal concentrations. This fact is also taken into account in the calculated selectivity index (SI), Table 2, where for only three compounds the SI is <20, while for the rest of the agents SI is >20, and for some derivatives even 100 and more. Thus, based on all these observations, it can be concluded that all the tested derivatives can be considered as in vitro non-toxic compounds for the subsequent design of new therapeutic agents.
The human THP-1 cell line (European Collection of Cell Cultures, Salisbury, UK) was cultured in RPMI 1640 medium supplemented with 10% fetal bovine serum, 2% L-glutamine, 1% penicillin, and streptomycin at 37 °C with 5% CO2. Cells were passaged at approximately 1-week intervals. All the tested compounds were prepared and dissolved as mentioned in our previous work.

## O=C(NC1CCCCC1)Oc1c(C(=O)Nc2cc(Cl)c(Cl)cc2Cl)ccc2ccccc12 [Compound 11, 2-[N-(2,4,5-Trichlorophenyl)carbamoyl]naphthalen-1-yl cyclohexyl carbamate]
[1]
  log D6.5: 1.2952
  log D7.4: 1.2955
  log k: 1.2911
MRSA 63718 [2]
  MIC: 0.254 µM (≈ 0.125 µg/mL)
MRSA SA 3202 [3]
  MIC: 0.508 µM (≈ 0.25 µg/mL)
MRSA SA 630 [4]
  MIC: 0.508 µM (≈ 0.25 µg/mL)
[5]
  MIC: 0.128 µM (≈ 0.063 µg/mL)
MRSA 63718 [6]
  MBC: 0.508 µM (≈ 0.25 µg/mL)
MRSA SA 3202 [7]
  MBC: 0.508 µM (≈ 0.25 µg/mL)
MRSA SA 630 [8]
  MBC: 1.02 µM (≈ 0.5 µg/mL)
[9]
  MBC: 0.508 µM (≈ 0.25 µg/mL)
[10]
  MIC: 65.1 µM (≈ 32 µg/mL)
[10]; E. faecalis ATCC 29212
  anti-enterococcal activity (in words): moderate activity
THP-1 cells
  IC50: 2760 ± 240 nM

## O=C(NC1CCCCCC1)Oc1c(C(=O)Nc2cc(Cl)c(Cl)cc2Cl)ccc2ccccc12 [Compound 12, 2-[N-(2,4,5-Trichlorophenyl)carbamoyl]naphthalen-1-yl cycloheptyl carbamate]
[1]
  lipophilicity (experimental log k/log D, approximate): ca. 1.45
  log D6.5: 1.4492
  log D7.4: 1.4527
  log k: 1.4469
MRSA 63718 [2]
  MIC: 0.247 µM (≈ 0.125 µg/mL)
MRSA SA 3202 [3]
  MIC: 0.494 µM (≈ 0.25 µg/mL)
MRSA SA 630 [4]
  MIC: 0.494 µM (≈ 0.25 µg/mL)
[5]
  MIC: 0.494 µM (≈ 0.25 µg/mL)
MRSA 63718 [6]
  MBC: 0.247 µM (≈ 0.125 µg/mL)
MRSA SA 3202 [7]
  MBC: 0.494 µM (≈ 0.25 µg/mL)
MRSA SA 630 [8]
  MBC: 0.494 µM (≈ 0.25 µg/mL)
[9]
  MBC: 0.494 µM (≈ 0.25 µg/mL)
[10]
  MIC: 127 µM (≈ 64.2 µg/mL)
THP-1 cells
  IC50: 3240 ± 120 nM

## O=C(NCCc1ccccc1)Oc1c(C(=O)Nc2cc(Cl)c(Cl)cc2Cl)ccc2ccccc12 [Compound 13, 2-[N-(2,4,5-Trichlorophenyl)carbamoyl]naphthalen-1-yl 2-phenylethyl carbamate]
[1]
  log D6.5: 1.2473
  log D7.4: 1.2470
  log k: 1.2450
MRSA 63718 [2]
  MIC: 0.123 µM (≈ 0.0632 µg/mL)
MRSA SA 3202 [3]
  MIC: 0.123 µM (≈ 0.0632 µg/mL)
MRSA SA 630 [4]
  MIC: 0.062 µM (≈ 0.0319 µg/mL)
[5]
  MIC: 0.062 µM (≈ 0.0319 µg/mL)
MRSA 63718 [6]
  MBC: 0.123 µM (≈ 0.0632 µg/mL)
MRSA SA 3202 [7]
  MBC: 0.243 µM (≈ 0.125 µg/mL)
MRSA SA 630 [8]
  MBC: 0.973 µM (≈ 0.5 µg/mL)
[9]
  MBC: 0.062 µM (≈ 0.0319 µg/mL)
[10]
  MIC: 125 µM (≈ 64.2 µg/mL)
THP-1 cells
  IC50: 2790 ± 280 nM

## O=C(NCCCCc1ccccc1)Oc1c(C(=O)Nc2cc(Cl)c(Cl)cc2Cl)ccc2ccccc12 [Compound 14, 2-[N-(2,4,5-Trichlorophenyl)carbamoyl]naphthalen-1-yl 4-phenylbutyl carbamate]
[1]
  lipophilicity (experimental log k/log D, approximate): ca. 1.25
  log D6.5: 1.5193
  log D7.4: 1.5191
  log k: 1.5167
[1]; listed as 15
  lipophilicity (experimental log k/log D, approximate): ca. 1.52
MRSA 63718 [2]
  MIC: 0.231 µM (≈ 0.125 µg/mL)
MRSA SA 3202 [3]
  MIC: 0.231 µM (≈ 0.125 µg/mL)
MRSA SA 630 [4]
  MIC: 0.116 µM (≈ 0.0629 µg/mL)
[5]
  MIC: 0.116 µM (≈ 0.0629 µg/mL)
MRSA 63718 [6]
  MBC: 0.231 µM (≈ 0.125 µg/mL)
MRSA SA 3202 [7]
  MBC: 0.461 µM (≈ 0.25 µg/mL)
MRSA SA 630 [8]
  MBC: 0.461 µM (≈ 0.25 µg/mL)
[9]
  MBC: 0.116 µM (≈ 0.0629 µg/mL)
[10]
  MIC: 118 µM (≈ 63.9 µg/mL)
THP-1 cells
  IC50: 2730 ± 370 nM
